Measurements published in ChEMBL document CHEMBL1146003, “Synthesis of 13-(substituted benzyl) berberine and berberrubine derivatives as antifungal agents” (2006).
≈ marks a conversion by molar mass, not a printed value.

Key:
Assay type in all cases: functional
Candida albicans = experiment: Antifungal activity against Candida albicans ATCC 10231 by broth microdilution method
Candida tropicalis = experiment: Antifungal activity against Candida tropicalis ATCC 13803 by broth microdilution method
Clavispora lusitaniae = experiment: Antifungal activity against Candida lusitaniae ATCC 42720 by broth microdilution method
Pichia kudriavzevii = experiment: Antifungal activity against Candida krusei ATCC 6258 by broth microdilution method
Aspergillus fumigatus = experiment: Antifungal activity against Aspergillus fumigatus ATCC 16424 by broth microdilution method
Aspergillus terreus = experiment: Antifungal activity against Aspergillus terreus ATCC 46941 by broth microdilution method
Cryptococcus neoformans = experiment: Antifungal activity against Cryptococcus neoformans ATCC 36556 by broth microdilution method

SMILES | MIC (Candida albicans) [µg/mL] | MIC (Candida tropicalis) [µg/mL] | MIC (Clavispora lusitaniae) [µg/mL] | MIC (Pichia kudriavzevii) [µg/mL] | MIC (Aspergillus fumigatus) [µg/mL] | MIC (Aspergillus terreus) [µg/mL] | MIC (Cryptococcus neoformans) [µg/mL]
COc1cc(Cc2c3[n+](cc4c(OC)c(OC)ccc24)CCc2cc4c(cc2-3)OCO4)cc(OC)c1OC.[Cl-] | 128 | 64 | 128 | 64 | > 128 | > 128 | 32
COc1ccc2c(Cc3cc(F)cc(F)c3)c3[n+](cc2c1OC)CCc1cc2c(cc1-3)OCO2.[Cl-] | 128 | 32 | 64 | 64 | > 128 | > 128 | 32
COc1ccc2c(Cc3ccc(C(C)C)cc3)c3[n+](cc2c1OC)CCc1cc2c(cc1-3)OCO2.[Cl-] | 4 | 1 | 8 | 4 | 64 | 32 | 4
COc1ccc2c(Cc3cc(F)c(F)c(F)c3)c3[n+](cc2c1O)CCc1cc2c(cc1-3)OCO2.[Cl-] | > 128 | 128 | 128 | 128 | > 128 | > 128 | 64
COc1ccc2c(Cc3ccc(C(F)(F)F)cc3)c3[n+](cc2c1O)CCc1cc2c(cc1-3)OCO2.[Cl-] | 128 | 64 | 64 | 64 | > 128 | > 128 | 16
COc1ccc2c(Cc3ccc(OC(F)(F)F)cc3)c3[n+](cc2c1O)CCc1cc2c(cc1-3)OCO2.[Cl-] | 64 | 32 | 32 | 32 | > 128 | > 128 | 16
COc1ccc2c(Cc3ccc(C(F)(F)F)cc3)c3[n+](cc2c1OC)CCc1cc2c(cc1-3)OCO2.[Cl-] | 32 | 16 | 32 | 32 | > 128 | > 128 | 16
COc1ccc2c(Cc3ccc(C(C)C)cc3)c3[n+](cc2c1O)CCc1cc2c(cc1-3)OCO2.[Cl-] | 16 | 16 | 8 | 16 | > 128 | > 128 | 4
COc1ccc2cc3[n+](cc2c1O)CCc1cc2c(cc1-3)OCO2 [BERBERRUBINE] | > 128 | 128 | > 128 | > 128 | > 128 | > 128 | > 128
COc1ccc2c(Cc3ccc(C(C)(C)C)cc3)c3[n+](cc2c1O)CCc1cc2c(cc1-3)OCO2.[Cl-] | 16 | 16 | 8 | 32 | > 128 | > 128 | 8
C[C@@H]1[C@H](O)[C@@H](C)/C=C/C=C/C=C/C=C/C=C/C=C/C=C/[C@H](O[C@@H]2O[C@H](C)[C@@H](O)[C@H](N)[C@@H]2O)C[C@@H]2O[C@](O)(C[C@@H](O)C[C@@H](O)[C@H](O)CC[C@@H](O)C[C@@H](O)CC(=O)O[C@H]1C)C[C@H](O)[C@H]2C(=O)O [AMPHOTERICIN B] | 0.5 (≈ 0.541 µM) | 0.5 (≈ 0.541 µM) | 1 (≈ 1.08 µM) | 0.5 (≈ 0.541 µM) | 1 (≈ 1.08 µM) | 16 (≈ 17.3 µM) | 0.25 (≈ 0.271 µM)
COc1cc(Cc2c3[n+](cc4c(O)c(OC)ccc24)CCc2cc4c(cc2-3)OCO4)cc(OC)c1OC.[Cl-] | > 128 | 128 | 128 | > 128 | > 128 | > 128 | 32

Now from value to molecule:

MIC (Candida albicans) [µg/mL] | MIC (Candida tropicalis) [µg/mL] | MIC (Clavispora lusitaniae) [µg/mL] | MIC (Pichia kudriavzevii) [µg/mL] | MIC (Aspergillus fumigatus) [µg/mL] | MIC (Aspergillus terreus) [µg/mL] | MIC (Cryptococcus neoformans) [µg/mL] | SMILES
16 | 8 | 32 | 16 | > 128 | > 128 | 16 | COc1ccc2c(Cc3ccc(OC(F)(F)F)cc3)c3[n+](cc2c1OC)CCc1cc2c(cc1-3)OCO2.[Cl-]
128 | 64 | 128 | 64 | > 128 | > 128 | 64 | COc1ccc2c(Cc3cc(F)c(F)c(F)c3)c3[n+](cc2c1OC)CCc1cc2c(cc1-3)OCO2.[Cl-]
128 | 16 | > 128 | 32 | > 128 | > 128 | 64 | COc1ccc2cc3[n+](cc2c1OC)CCc1cc2c(cc1-3)OCO2.[Cl-] [BERBERINE CHLORIDE]
4 | 2 | 8 | 8 | 64 | 64 | 4 | COc1ccc2c(Cc3ccc(C(C)(C)C)cc3)c3[n+](cc2c1OC)CCc1cc2c(cc1-3)OCO2.[Cl-]
> 128 | 128 | 128 | 128 | > 128 | > 128 | 32 | COc1ccc2c(Cc3cc(F)cc(F)c3)c3[n+](cc2c1O)CCc1cc2c(cc1-3)OCO2.[Cl-]
